Results as given in US7282507B2, “Indole derivatives as selective androgen receptor modulators (SARMS)” (Janssen Pharmaceutica N.V., priority 2004, dated 2007).
“And” between values parts separate entries of the source, which are not always exact repeats. Equal values may be shown once. Read-outs that look alike come from different tables or passages of the source.

Assays:
[1] = molecular target: T1, androgen receptor (rat ventral prostate cytosol) (Rattus norvegicus, UniProt P15207); assay: Androgen Receptor Binding Using Rat Ventral Prostate Cytosol; conditions: for inhibition at 1 µM: read-out: % Inhibition, Androgen Receptor Binding (Rat Cytosol); for IC50: read-out: IC50 (nM), Androgen Receptor Binding (Rat Cytosol)
T1 construct: from tissue; host or cells: ventral prostate cytosol of castrated male Sprague Dawley or Wistar rats
T1 sequence (P15207 1-902): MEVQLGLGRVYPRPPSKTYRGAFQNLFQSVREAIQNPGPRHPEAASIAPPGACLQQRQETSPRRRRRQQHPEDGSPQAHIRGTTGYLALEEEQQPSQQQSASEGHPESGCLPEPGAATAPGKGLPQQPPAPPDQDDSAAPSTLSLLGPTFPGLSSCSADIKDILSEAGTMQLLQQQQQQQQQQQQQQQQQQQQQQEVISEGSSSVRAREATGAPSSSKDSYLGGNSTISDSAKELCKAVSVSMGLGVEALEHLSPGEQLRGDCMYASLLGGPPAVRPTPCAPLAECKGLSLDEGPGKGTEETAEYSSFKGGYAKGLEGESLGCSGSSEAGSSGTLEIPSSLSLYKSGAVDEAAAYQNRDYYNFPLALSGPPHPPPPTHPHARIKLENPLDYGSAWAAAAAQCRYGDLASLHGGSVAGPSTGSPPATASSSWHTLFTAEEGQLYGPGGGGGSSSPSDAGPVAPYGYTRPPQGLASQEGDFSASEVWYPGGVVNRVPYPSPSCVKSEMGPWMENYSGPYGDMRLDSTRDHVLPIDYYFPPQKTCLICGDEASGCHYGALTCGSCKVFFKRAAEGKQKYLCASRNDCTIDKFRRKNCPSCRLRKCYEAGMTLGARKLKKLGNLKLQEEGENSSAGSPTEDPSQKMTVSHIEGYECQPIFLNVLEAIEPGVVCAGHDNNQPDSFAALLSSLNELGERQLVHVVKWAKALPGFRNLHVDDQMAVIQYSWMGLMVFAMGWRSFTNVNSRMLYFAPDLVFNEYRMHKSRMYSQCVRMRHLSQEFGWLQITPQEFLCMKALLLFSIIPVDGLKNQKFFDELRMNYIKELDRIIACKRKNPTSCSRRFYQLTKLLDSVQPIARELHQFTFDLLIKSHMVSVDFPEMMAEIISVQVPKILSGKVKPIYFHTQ
Method in brief: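 Cytosol from castrated rat ventral prostate was incubated overnight at 4°C with 0.5 nM [3H] tracer and compound in TED buffer (10 mM Tris-HCl pH 7.4, molybdate, EDTA, DTT, glycerol).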

[2] = molecular target: T2, androgen receptor LBD (Panvera) (Rattus norvegicus, UniProt P15207); assay: Androgen Receptor Filtration Binding Assay (PANVERA)
T2 construct: 5 pmol androgen receptor LBD (Panvera); purchased Panvera
T2 sequence (P15207 651-882 limits assumed): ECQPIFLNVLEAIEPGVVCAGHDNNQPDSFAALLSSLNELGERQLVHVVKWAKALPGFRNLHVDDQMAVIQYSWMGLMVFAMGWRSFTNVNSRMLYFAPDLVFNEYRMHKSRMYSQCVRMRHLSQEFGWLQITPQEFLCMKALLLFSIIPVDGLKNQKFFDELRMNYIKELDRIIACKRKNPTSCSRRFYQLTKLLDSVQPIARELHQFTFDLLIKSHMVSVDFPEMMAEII
Procedure: The assay was run on a 96 well plate with each well filled with a total reaction volume 150 μL, of a solution containing 5 pmol androgen receptor LBD (Panvera) or 30 μL of freshly prepared rat cytosol, 0.5 nM [^3H] […] (TED buffer contains 10 mM Tris.HCl pH 7.4, 1 mM sodium molybdate, 1.5 mM EDTA, 1 mM DTT and 10% (v/v) glycerol.)
On day one, the solution containing receptor, tracer and TED buffer was distributed into a 96 well plate. Diluted test compound or control vehicle was then added to individual wells and the plate incubated at 4° C. overnight.
On day two, to each well was then added 20 μL human γ-globulin (ICN 823102), prepared at 25 mg/ml in TE pH 8.0, and 55 μL 40% polyethylene glycol 8000 (J T Baker U222-08), prepared in TE pH 8.0. The plate was incubated at 4° C. for 60 minutes. During incubation, the harvester was rinsed with 10% PEG 8000, prepared in TE pH 8.0, and a GF/C Unifilter-96 was pre-wet with 10% PEG. The binding reaction was filtered, the retentate was washed three times with 10% PEG and dried under vacuum for a couple of minutes, then dried at 50° C. for 5 min and the plate was bottom sealed. Next, 25 μL of Microscint-20 (Packard) was added to the filter wells and the plate was top sealed. The plate wells were then counted on a TopCount (Packard).
Counts per well were measured and IC50s determined by linear regression.

[3] = [3H] R1881 tracer 0.5 nM, read-out: IC50 (nM), Androgen Receptor Binding (Panvera)

| SMILES | IC50 [2, 3] | inhibition at 1 µM ([1]; Concentration 1000 nM) [%] | further results |
| --- | --- | --- | --- |
| CS(=O)(=O)n1c(C2(O)CCN(Cc3ccccc3)CC2)cc2cc(Cl)c(C(F)(F)F)cc21 [Compound 21] | > 10200 nM | – | % Inhibition, Androgen Receptor Binding (Rat Cytosol) ([1]; Concentration 1000 nM): −41.5% |
| COc1ccc(C(=O)OCC(C)(O)c2cc3cc([N+](=O)[O-])c(C(F)(F)F)cc3[nH]2)cc1 (stereo not shown) [Compound 65] | 945 nM | 47.5 | – |
| CC(O)(CSc1ccc(Cl)cc1)c1cc2cc([N+](=O)[O-])c(C(F)(F)F)cc2o1 (racemic) [Compound 8] | 2650 nM | -2 | – |
| CC(O)(C[S+]([O-])c1ccc(F)cc1)c1cc2cc(Cl)c(C(F)(F)F)cc2[nH]1 (stereo not shown) [Compound 114] | 4900 nM | – | % Inhibition, Androgen Receptor Binding (Rat Cytosol) ([1]; Concentration 1000 nM, 1 µM): 61% |
| CC(O)(Sc1ccc(Cl)cc1)c1cc2cc(C#N)c(C(F)(F)F)cc2[nH]1 (racemic) [Compound 261] | 1460 nM | – | % Inhibition, Androgen Receptor Binding (Rat Cytosol) ([1]; Concentration 1000 nM): 14.05% |
| CS(=O)(=O)n1c(C2(O)CCN(C(=O)OCc3ccccc3)CC2)cc2cc(Cl)c(C(F)(F)F)cc21 [Compound 19] | > 100000 nM | – | % Inhibition, Androgen Receptor Binding (Rat Cytosol) ([1]; Concentration 1000 nM): −55% |
| O=C(OCc1ccccc1)N1CCC(O)(c2cc3cc(Cl)c(C(F)(F)F)cc3[nH]2)CC1 [Compound 20] | 23500 nM | -28.5 | – |
| CC(O)(COC(=O)c1ccc(Cl)cc1)c1cc2cc(Cl)ccc2[nH]1 (stereo not shown) [Compound 53] | 1970 nM | 9.75 | – |
| CC(O)(c1cc2cc(C#N)c(C(F)(F)F)cc2[nH]1)S(=O)(=O)c1ccc(Cl)cc1 (racemic) [Compound 262] | > 10000 nM | – | % Inhibition, Androgen Receptor Binding (Rat Cytosol) ([1]; Concentration 1000 nM): −8.4% |
| CC(O)(CSc1ccccc1)c1cc2cc(Cl)c(C(F)(F)F)cc2[nH]1 (stereo not shown) [Compound 106] | 225 nM | 63 | IC50 [1]: 300 nM |
| CC(O)(COC(=O)c1ccccc1)c1cc2cc(Cl)c(C(F)(F)F)cc2[nH]1 (stereo not shown) [Compound 61] | 440 nM | 73 | – |
| CC(O)(CSc1ccc(Cl)c(Cl)c1)c1cc2cc(Cl)c(C(F)(F)F)cc2n1S(C)(=O)=O (stereo not shown) [Compound 86] | 1250 nM | 72.5 | IC50 [1]: 240 nM |
| CC(O)(CSc1ccccc1)c1cc2cc(C#N)c(C(F)(F)F)cc2[nH]1 (stereo not shown) [Compound 95] | 3000 nM | 56.5 | – |
| COC(=O)c1ccc2[nH]c(C(C)(O)CSc3ccc(Cl)cc3)cc2c1 (stereo not shown) [Compound 97] | 7400 nM | 25 | – |
| CC(O)(CSc1ccc(Cl)cc1)c1cc2cc(Cl)ccc2n1S(C)(=O)=O (stereo not shown) [Compound 101] | 3850 nM | -24.9 | – |
| CC(O)(CSC1CCCCC1)c1cc2cc(C#N)c(C(F)(F)F)cc2[nH]1 (stereo not shown) [Compound 92] | 37000 nM | 14.7 | – |
| COC(=O)c1ccc2[nH]c(C(C)(O)CSC3CCCCC3)cc2c1 (stereo not shown) [Compound 94] | 15000 nM | 21.8 | – |
| CC(O)(CSc1ccc(Cl)c(Cl)c1)c1cc2cc([N+](=O)[O-])c(C(F)(F)F)cc2n1S(C)(=O)=O (stereo not shown) [Compound 91] | 1280 nM | 36 | – |
| CC(O)(CSc1ccc(F)cc1)c1cc2nc(C(F)(F)F)ccc2[nH]1 (racemic) [Compound 5] | 39000 nM | 5.5 | – |
| Cc1ccc(C(=O)OCC(C)(O)c2cc3cc([N+](=O)[O-])c(C(F)(F)F)cc3[nH]2)cc1 (stereo not shown) [Compound 69] | 1200 nM | 31 | – |

| SMILES | IC50 [2, 3] | inhibition at 1 µM ([1]; Concentration 1000 nM) [%] | further results |
| --- | --- | --- | --- |
| CC(O)(C[S+]([O-])c1ccc(Cl)c(Cl)c1)c1cc2cc(Cl)c(C(F)(F)F)cc2[nH]1 (stereo not shown) [Compound 116] | 1750 nM | 28.4 | – |
| CC(O)(COC(=O)c1ccc(Cl)c(Cl)c1)c1cc2cc(C#N)c(C(F)(F)F)cc2[nH]1 (stereo not shown) [Compound 78] | 3560 nM | 16.6 | – |
| CC(O)(CSc1ccc(F)cc1)c1cc2cc(Cl)ccc2[nH]1 (stereo not shown) [Compound 100] | 1160 nM | 80 | – |
| CC(O)(COC(=O)c1ccccc1)c1cc2cc(C#N)c(C(F)(F)F)cc2[nH]1 (stereo not shown) [Compound 75] | – | – | inhibition at 1 µM [1]: 13.2%; IC50 ([2]; IC50 (nM), Androgen Receptor Binding (Panvera)): 9100 nM |
| CC(CO)(Sc1ccc(Cl)cc1)c1cc2cc(Cl)c(C(F)(F)F)cc2[nH]1 (racemic) [Compound 253] | 335 nM | 33.5 | – |
| CC(O)(CSc1ccccc1)c1cc2ccccc2n1S(C)(=O)=O (stereo not shown) [Compound 90] | > 9000 nM | -2.5 | – |
| CC(O)(CSc1ccc(F)cc1)c1cc2cc(C#N)c(C(F)(F)F)cc2[nH]1 (stereo not shown) [Compound 109] | 2600 nM | 49 | – |
| CC(O)(CSc1ccc(Cl)cc1)c1cc2ccccc2n1S(C)(=O)=O (stereo not shown) [Compound 88] | 5150 nM | -17.4 | – |
| CC(O)(Sc1ccc(Cl)c(Cl)c1)c1cc2cc([N+](=O)[O-])c(C(F)(F)F)cc2[nH]1 (racemic) [Compound 254] | 1020 nM and 920 nM | – | % Inhibition, Androgen Receptor Binding (Rat Cytosol) ([1]; Concentration 1000 nM): 41%; IC50 [1]: 670 nM |
| CC(O)(C[S+]([O-])c1ccccc1)c1cc2cc(Cl)c(C(F)(F)F)cc2[nH]1 (stereo not shown) [Compound 112] | 4100 nM | 39.5 | – |
| CC(O)(COC(=O)c1ccccc1)c1cc2cc([N+](=O)[O-])c(C(F)(F)F)cc2[nH]1 (stereo not shown) [Compound 64] | 815 nM | 61.5 | – |
| CC(O)(COC(=O)c1ccc(Cl)cc1)c1cc2cc(Cl)c(C(F)(F)F)cc2[nH]1 (racemic) [Compound 62] | 325 nM | – | % Inhibition, Androgen Receptor Binding (Rat Cytosol) ([1]; Concentration 1000 nM): 69% |
| CC(O)(Sc1ccccc1)c1cc2cc([N+](=O)[O-])c(C(F)(F)F)cc2[nH]1 (racemic) [Compound 258] | 2450 nM | – | % Inhibition, Androgen Receptor Binding (Rat Cytosol) ([1]; Concentration 1000 nM): 35.4% |
| CC(O)(COC(=O)c1ccc(Cl)cc1)c1cc2cc(C#N)c(C(F)(F)F)cc2[nH]1 (stereo not shown) [Compound 76] | 1240 nM | -30.5 | – |
| CC(O)(CSc1ccc(F)cc1)c1cc2ccccc2n1S(C)(=O)=O (stereo not shown) [Compound 107] | 9400 nM | 1.5 | – |
| CC(O)(CSc1ccc(Cl)cc1)c1cc2cc(Cl)ccc2[nH]1 (stereo not shown) [Compound 102] | 665 nM | 73.5 | IC50 [1]: 140 nM |
| CC(O)(C[S+]([O-])c1ccc(Cl)c(Cl)c1)c1cc2cc(Cl)c(C(F)(F)F)cc2[nH]1 (stereo not shown) [Compound 117] | 2000 nM | – | % Inhibition, Androgen Receptor Binding (Rat Cytosol) ([1]; Concentration 1000 nM, 1 µM): 32.5% |
| CC(O)(COC(=O)c1c(Cl)cccc1Cl)c1cc2cc([N+](=O)[O-])c(C(F)(F)F)cc2[nH]1 (stereo not shown) [Compound 52] | 150 nM | 94.5 | IC50 [1]: 79 nM |
| COC(=O)c1ccc2c(c1)cc(C(C)(O)CSc1ccc(F)cc1)n2S(C)(=O)=O (stereo not shown) [Compound 98] | 8500 nM | -31 | – |
| CC(O)(COC(=O)c1ccc(Cl)c(Cl)c1)c1cc2cc([N+](=O)[O-])c(C(F)(F)F)cc2[nH]1 (stereo not shown) [Compound 56] | 485 nM and 610 nM | 38.5 | – |
